Read-outs that look alike come from different tables or passages of the source.
What was measured:
[1] = Bidirectional transport in MOCK LLC-PK1 cells; details: pig
Method: MDR1 expressing LLC-PK1 cells or MOCK LLC-PK1 cells were utilized to identify whether P-gp is involved in the efflux transport across the membrane barrier. Cells were cultured as described above. Cells were seeded at a density of 2 × 10^4 in Millicell® 24-well cell culture plates with a 6.5 mm insert (0.4 µm polycarbonate membrane) from Corning (Kennebunk, ME, USA) 7 days before the experiments. On the day of the experiment, transepithelial electrical resistance (TEER) was measured to assess monolayer integrity. After washing the cells twice with HBSS, transport experiments in either the apical-to-basolateral direction (A-B) or the basolateral-to-apical direction (B-A) were conducted. […] After incubating the plates at 37 °C for 2 h, samples from the receiving and donor wells (50 μL) were taken simultaneously. All the samples were stored at −40 °C for LC-MS/MS analysis.
In the bidirectional transport study in LLC-PK1 cells, the following equations were used to calculate Papp values and the MDR1 efflux ratio.

OATP1B1 = target: T1, OATP1B1 (Homo sapiens, UniProt Q9Y6L6); details: 5 min, 5 µM
T1 sequence (Q9Y6L6 1-691): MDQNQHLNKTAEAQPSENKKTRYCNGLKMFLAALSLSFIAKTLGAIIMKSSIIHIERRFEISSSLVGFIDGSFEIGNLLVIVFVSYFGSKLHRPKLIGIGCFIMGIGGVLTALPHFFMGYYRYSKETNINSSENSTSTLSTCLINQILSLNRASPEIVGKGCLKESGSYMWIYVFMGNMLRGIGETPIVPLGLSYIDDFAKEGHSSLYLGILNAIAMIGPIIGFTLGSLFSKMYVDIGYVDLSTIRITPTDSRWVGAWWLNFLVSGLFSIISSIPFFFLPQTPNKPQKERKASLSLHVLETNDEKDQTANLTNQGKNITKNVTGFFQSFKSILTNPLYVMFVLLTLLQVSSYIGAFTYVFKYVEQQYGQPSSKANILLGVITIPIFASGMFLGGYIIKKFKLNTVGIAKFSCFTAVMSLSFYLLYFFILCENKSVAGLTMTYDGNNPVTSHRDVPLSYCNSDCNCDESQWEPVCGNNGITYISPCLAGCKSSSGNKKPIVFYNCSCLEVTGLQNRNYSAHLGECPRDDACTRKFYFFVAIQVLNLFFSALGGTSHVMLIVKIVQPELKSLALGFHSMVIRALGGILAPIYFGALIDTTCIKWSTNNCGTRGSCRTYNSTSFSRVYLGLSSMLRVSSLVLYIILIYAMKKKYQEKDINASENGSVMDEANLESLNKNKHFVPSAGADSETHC
Method: Expressing OATP1B1/OATP1B3 or MOCK HEK293 cells were utilized to evaluate whether TET is a substrate of these two SLC transporters. Cell culture was performed as mentioned above. Cells were seeded on 96-well plates at the density of 0.8 × 10^5 cells/well. The culture medium was replaced with a medium containing 5 mM sodium butyrate for 24 h before the transport study to enhance the expression of transporters. For the transport assay, the DMEM media were removed and the cells were washed with pre-warmed Krebs–Henseleit buffer twice (0.1 mL/well). The second washing buffer was kept in the wells and the plate was incubated at 37 °C for 5 min before the uptake assay was initiated. […] The incubation solution was removed and the cells were washed with ice-cold transportation buffer three times (0.1 mL/well). […]
In the uptake study of TET by OATP1B1 and OATP1B3 expressing the HEK293 cell line, the uptake clearance (U) of the substrate was calculated according to Equation (5), the transporter-mediated uptake ratio (UR) was calculated by dividing the uptake clearance from transporter-expressing cells to that from the mock cells according to Equation (6), and the inhibition ratio (IR) was calculated according to Equation (7), where p represents the protein content and T is the duration of the incubation time. […]

HEK293-MOCK cells = assay: Uptake by MOCK (empty vector) HEK293 cells; details: TET 5 μM, 5 min
Method: Expressing OATP1B1/OATP1B3 or MOCK HEK293 cells were utilized to evaluate whether TET is a substrate of these two SLC transporters. Cell culture was performed as mentioned above. Cells were seeded on 96-well plates at the density of 0.8 × 10^5 cells/well. The culture medium was replaced with a medium containing 5 mM sodium butyrate for 24 h before the transport study to enhance the expression of transporters. For the transport assay, the DMEM media were removed and the cells were washed with pre-warmed Krebs–Henseleit buffer twice (0.1 mL/well). The second washing buffer was kept in the wells and the plate was incubated at 37 °C for 5 min before the uptake assay was initiated. […] The incubation solution was removed and the cells were washed with ice-cold transportation buffer three times (0.1 mL/well). A total of 0.1 mL pure water was added to each well to lyse the cells by repeated freezing and thawing (−196 °C–37 °C, three times). The cell lysate was collected and stored at −40 °C for LC-MS/MS analysis and protein measurement.
In the uptake study of TET by OATP1B1 and OATP1B3 expressing the HEK293 cell line, the uptake clearance (U) of the substrate was calculated according to Equation (5), the transporter-mediated uptake ratio (UR) was calculated by dividing the uptake clearance from transporter-expressing cells to that from the mock cells according to Equation (6), and the inhibition ratio (IR) was calculated according to Equation (7), where p represents the protein content and T is the duration of the incubation time. (5) U=Clysate/p×T (6) UR=U/UMOCK (7) IR=(1−Uwith inhibitor−Umock with inhibitor/Uwithout inhibitor−Umock without inhibitor)×100

[2] = In vitro experiments for fup, fu,mic and Rb/p used in the well-stirred model; format: in vitro ADME
Method: (3) CLint,scaled=CLint,app×45mg microsomes/g liver×g liver/kg body weight (4) CLh,blood=Q×fu,p/Rb/p×CLint/fu,mic/Q+CLint·fu,p/Rb·CLint/fu,mic

CYP3A = details: cited from earlier work
[3] = Pharmacokinetics of TET in blood after a single i.v. administration in normal and LPS-induced ALI mice; details: male, BALB/c, mouse, in vivo, 5 mg/kg; for AUC(0-inf) / AUC(0-t) / C0 / half-life / clearance / MRT last / Vd: iv, 5 mg/kg i.v., blood; for clearance: read-out: CL (in vivo CLblood) (converted); for MRT last: read-out: MRT(0-t)
Text: Twelve male BALB/c mice were randomly divided into two groups (n = 6 for each group). […]

COc1ccc2cc1Oc1ccc(cc1)C[C@H]1c3cc(c(OC)cc3CCN1C)Oc1c(OC)c(OC)cc3c1[C@H](C2)N(C)CC3 [TET, Tetrandrine]
Papp A→B at 2 h [1]: 12.2 ± 0.7 nm/s | Papp B→A at 2 h [1]: 38.3 ± 1.2 nm/s | efflux ratio at 2 h ([1]; LLC-PK1): 3.13 | Inhibition Ratio (OATP1B1): 11.1 | Uptake Ratio (OATP1B1): 1.2 | Uptake Clearance (HEK293-MOCK cells; MOCK (OATP1B1 set)): 131 ± 11.3 nM/min/mg Protein | Uptake Clearance (HEK293-MOCK cells; MOCK (OATP1B3 set)): 126 ± 10.9 nM/min/mg Protein | Uptake Clearance (HEK293-MOCK cells; MOCK+RIF (OATP1B1 set)): 117 ± 12.8 nM/min/mg Protein | Uptake Clearance (HEK293-MOCK cells; MOCK+RIF (OATP1B3 set)): 119 ± 8.03 nM/min/mg Protein | Rb/p [2]: 2.39 | fup [2]: 0.01 | fraction unbound ([2]; obtained from in vitro experiments): 0.18 | fm (CYP3A, major isoform toward TET) (CYP3A): > 90% | increased Vz, LPS-treated vs normal mice [3]: ~ 134% | AUC(0-inf) ([3]; LPS-treated mice): 65.7 ± 17.5 µg·h/mL | AUC(0-t) ([3]; LPS-treated mice): 44.1 ± 8.46 µg·h/mL | C0 ([3]; LPS-treated mice): 2.3 ± 0.935 µg/mL | half-life ([3]; LPS-treated mice): 93.2 ± 26.4 h | clearance ([3]; LPS-treated mice): 0.0809 L/h/kg | MRT last ([3]; LPS-treated mice): 137 ± 40.4 h | Vd ([3]; LPS-treated mice, read-out: Vss): 10.5 ± 1.77 L/kg | Vd ([3]; LPS-treated mice, read-out: Vz): 10.3 ± 1.75 L/kg | AUC(0-inf) ([3]; normal mice): 29.5 ± 3.79 µg·h/mL | AUC(0-t) ([3]; normal mice): 26.3 ± 3.42 µg·h/mL | C0 ([3]; normal mice): 2.27 ± 0.27 µg/mL | half-life ([3]; normal mice): 30.7 ± 5.21 h | clearance ([3]; normal mice): 0.172 L/h/kg | MRT last ([3]; normal mice): 72.7 ± 6.4 h | Vd ([3]; normal mice, read-out: Vss): 7.71 ± 2.01 L/kg | Vd ([3]; normal mice, read-out: Vz): 12.5 ± 1.63 L/kg
